Laboratory results as given in patent US12178205B2, “Systems and methods for storing and preserving implantable devices” (Rutgers, The State University of New Jersey, priority 2016, dated 2024).

System: Staphylococcus aureus (ATCC 6538)
Test: Antimicrobial effectiveness of zinc chloride on Staphylococcus aureus suspension (exposure, neutralization, assay for survivors)
Type: cell-based
Settings: for CFU/mL of Survivors / Log10 Survivors: 37±1° C.; for Number of Survivors: duplicate plate counts; for Percent Reduction: vs test population control 4.68 × 10^5 CFU/mL; for Log10 Reduction: vs test population control Log10 5.67
Experimental: (§1) A suspension of test organism Staphylococcus aureus (ATCC 6538) was obtained by adding colonies on tryptic soy agar and 5% Sheep Blood (BAP) with incubation parameters of 35° C.-37° C., aerobic in 0.85% saline to match a 3.0 McFarland standard. The suspension was exposed to a test substance of zinc chloride at specified concentrations of 0.1%, 0.3%, and 0.5% from a 1% stock solution at specified exposure times of 10 minutes, 2 hours, 6 hours, and 24 hours at a temperature of 37±1° C. (37.2° C.). Latheen broth and 1% sodium bicarbonate (9.9 mL) were used as a neutralizer. After exposure, an aliquot of the suspension was transferred to the neutralizer and was assayed for survivors.
as §1

[1] = exposure 10 minutes, dilution (volume plated) 10^0 (0.100 mL)
[2] = exposure 10 minutes, dilution (volume plated) 10^0 (1.00 mL)

| Compound | CFU/mL of Survivors (exposure 10 minutes) | Log10 Survivors (exposure 10 minutes) | Number of Survivors [1] | Number of Survivors [2] | Percent Reduction (exposure 10 minutes) | Log10 Reduction (exposure 10 minutes) | CFU/mL of Survivors (exposure 2 hours) | Log10 Survivors (exposure 2 hours) | Percent Reduction (exposure 2 hours) [%] | Log10 Reduction (exposure 2 hours) | CFU/mL of Survivors (exposure 6 hours) | Log10 Survivors (exposure 6 hours) | Percent Reduction (exposure 6 hours) [%] | Log10 Reduction (exposure 6 hours) | CFU/mL of Survivors (exposure 24 hours) | Log10 Survivors (exposure 24 hours) | Percent Reduction (exposure 24 hours) [%] | Log10 Reduction (exposure 24 hours) | Number of Survivors (exposure 10 minutes, dilution (volume plated) 10^1 (0.100 mL)) |
| --- | --- | --- | --- | --- | --- | --- | --- | --- | --- | --- | --- | --- | --- | --- | --- | --- | --- | --- | --- |
| [Cl-].[Cl-].[Zn+2] [0.3% Zinc Chloride, zinc chloride] | 5.9 × 10^4 CFU/mL | 4.77 | T, T | T, T | 87.4% | 0.90 | 1 × 10^1 CFU/mL | 1.00 | >99.99 | 4.67 | <5 CFU/mL | <0.70 | >99.99 | >4.97 | <5 CFU/mL | <0.70 | >99.99 | >4.97 |  |
| [Cl-].[Cl-].[Zn+2] [0.1% Zinc Chloride, zinc chloride] | 6.8 × 10^5 CFU/mL | 5.83 | T, T | T, T | None | None | 4.9 × 10^2 CFU/mL | 2.69 | >99.8 | 2.98 | 2.3 × 10^2 CFU/mL | 2.36 | >99.9 | 3.31 | 4 × 10^1 CFU/mL | 1.60 | 99.99 | 4.07 | T, T |
| [Cl-].[Cl-].[Zn+2] [0.5% Zinc Chloride, zinc chloride] | 2.9 × 10^4 CFU/mL | 4.46 | T, T | T, T | 93.8% | 1.21 | 1 × 10^1 CFU/mL | 1.00 | >99.99 | 4.67 | <5 CFU/mL | <0.70 | >99.99 | >4.97 | <5 CFU/mL | <0.70 | >99.99 | >4.97 |  |
